Assay in all cases: relative viability (nuclei count vs DMSO), 5 days (fraction); higher = more cells survive
Compound in assay [1]: CN[C@@H]1C[C@H]2O[C@@](C)([C@@H]1OC)n1c3ccccc3c3c4c(c5c6ccccc6n2c5c31)C(=O)NC4 [Staurosporine] + CS(=O)(=O)N1CCN(Cc2cc3nc(-c4cccc5[nH]ncc45)nc(N4CCOCC4)c3s2)CC1 [Pictilisib] (partner 1 µM)
The procedure, abridged:
(§1)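 For relative viability, nuclei counts in treated wells were divided by those in vehicle wells. Lung cancer cell lines had been pin-tool dosed in 1536-well plates the day after seeding and cultured for 5 days, then fixed and stained in one step (final 0.05% Triton X-100, 1% formaldehyde, 1 ug/ml Hoechst) and imaged at 4×. Doses were one drug alone or a fixed anchor-drug dose plus five library-drug doses (not always all listed) in √10 steps, and values are duplicate-plate medians.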

Compound in assay [2]: CC1=C(CC(=O)O)c2cc(F)ccc2/C1=C\c1ccc([S+](C)[O-])cc1 [Sulindac] + COc1cccc2cc(-c3nc([C@H]4CC[C@H](C(=O)O)CC4)n4ncnc(N)c34)[nH]c12 [OSI-027] (partner 0.5 µM)
The procedure, abridged:
as §1

Compound in assay [3]: CC1=C(CC(=O)O)c2cc(F)ccc2/C1=C\c1ccc([S+](C)[O-])cc1 [Sulindac] + Nc1nc2[nH]cc(CCc3ccc(C(=O)N[C@@H](CCC(=O)O)C(=O)O)cc3)c2c(=O)[nH]1 [Pemetrexed] (partner 0.2 µM)
The gist of the method:
as §1

Compound in assay [4]: CC1=C(CC(=O)O)c2cc(F)ccc2/C1=C\c1ccc([S+](C)[O-])cc1 [Sulindac] + O=C(CCCCCCC(=O)Nc1ccccc1)NO [Vorinostat] (partner 1 µM)
The gist of the method: as §1

Experimental findings from the supplement of paper PMC10307832 are described below.

Take NCI-H3122: the relative viability is 0.668 in assay [1] (first compound 0.005 µM); 0.306 in assay [1] (first compound 0.01581 µM); 0.566 in assay [1] (first compound 0.05 µM); 0.441 in assay [1] (first compound 0.1581 µM); 0.118 in assay [1] (first compound 0.5 µM); 1.07 in assay [2] (first compound 0.08 µM). Besides, the relative viability was determined as 1.02 in assay [2] (first compound 0.253 µM); 0.864 in assay [2] (first compound 0.8 µM); 0.937 in assay [2] (first compound 2.53 µM); 1.13 in assay [2] (first compound 8 µM); 0.203 in assay [3] (first compound 0.08 µM); 0.194 in assay [3] (first compound 0.253 µM). Further, the relative viability was found to be 0.207 in assay [3] (first compound 0.8 µM); 0.176 in assay [3] (first compound 2.53 µM); 0.214 in assay [3] (first compound 8 µM); 0.98 in assay [4] (first compound 0.08 µM); 0.752 in assay [4] (first compound 0.253 µM); 0.762 in assay [4] (first compound 0.8 µM). The relative viability in assay [4] (first compound 2.53 µM) is 0.964; in assay [4] (first compound 8 µM) it was 1.13.

On to PC-3 [JPC-3], for which the relative viability in assay [1] (first compound 0.005 µM) came out at 0.655; in assay [1] (first compound 0.05 µM), 0.446; in assay [1] (first compound 0.1581 µM), 0.271; in assay [1] (first compound 0.5 µM), 0.242; in assay [2] (first compound 0.08 µM), 0.715; in assay [2] (first compound 0.253 µM), 0.797. For the same cell line, the relative viability in assay [2] (first compound 0.8 µM) was determined as 0.614; in assay [2] (first compound 2.53 µM), 0.752; in assay [2] (first compound 8 µM) it was 0.728; in assay [3] (first compound 0.08 µM), 1.07; in assay [3] (first compound 0.253 µM), 1.04; in assay [3] (first compound 0.8 µM), 0.738. In addition, the relative viability in assay [3] (first compound 2.53 µM) is 1.07; in assay [3] (first compound 8 µM), 1.19; in assay [4] (first compound 0.08 µM) it was 0.839; in assay [4] (first compound 0.253 µM), 0.786; in assay [4] (first compound 0.8 µM), 0.647; in assay [4] (first compound 2.53 µM), 0.778. For the same cell line, in assay [4] (first compound 8 µM), the relative viability is 0.967.

On to PC-14, for which the relative viability in assay [1] (first compound 0.005 µM) turned out to be 0.237; in assay [1] (first compound 0.01581 µM), 0.12; in assay [1] (first compound 0.05 µM), 0.0413; in assay [1] (first compound 0.1581 µM), 0.0584; in assay [1] (first compound 0.5 µM) it was 0.0397; in assay [2] (first compound 0.08 µM), 1.3. The relative viability in assay [2] (first compound 0.253 µM) came to 1.2; in assay [2] (first compound 2.53 µM) it was 0.886; in assay [2] (first compound 8 µM) it was 1.09; in assay [3] (first compound 0.08 µM), 0.122; in assay [3] (first compound 0.253 µM), 0.118; in assay [3] (first compound 0.8 µM), 0.162. Besides, the relative viability in assay [3] (first compound 2.53 µM) stood at 0.13; in assay [3] (first compound 8 µM) it was 0.147; in assay [4] (first compound 0.08 µM), 0.873; in assay [4] (first compound 0.253 µM) it was 0.9; in assay [4] (first compound 0.8 µM), 0.629; in assay [4] (first compound 2.53 µM), 0.645. The relative viability in assay [4] (first compound 8 µM) was determined as 0.855.

As to RERF-LC-KJ, the relative viability turned out to be 0.565 in assay [1] (first compound 0.005 µM); 0.308 in assay [1] (first compound 0.01581 µM); 0.284 in assay [1] (first compound 0.05 µM); 0.151 in assay [1] (first compound 0.1581 µM); 0.141 in assay [1] (first compound 0.5 µM); 0.681 in assay [2] (first compound 0.08 µM). For the same cell line, the relative viability in assay [2] (first compound 0.253 µM) was determined as 0.671; in assay [2] (first compound 0.8 µM) it was 0.551; in assay [2] (first compound 2.53 µM), 0.569; in assay [2] (first compound 8 µM), 0.587; in assay [3] (first compound 0.08 µM) it was 0.458; in assay [3] (first compound 0.253 µM), 0.486. For the same cell line, the relative viability in assay [3] (first compound 0.8 µM) came out at 0.506; in assay [3] (first compound 2.53 µM), 0.447; in assay [3] (first compound 8 µM), 0.519; in assay [4] (first compound 0.08 µM), 0.687; in assay [4] (first compound 0.253 µM), 0.823; in assay [4] (first compound 0.8 µM), 0.597. For the same cell line, the relative viability in assay [4] (first compound 2.53 µM) stood at 0.78; in assay [4] (first compound 8 µM), 0.734.

For the cell line SK-LU-1, the relative viability worked out at 0.412 in assay [1] (first compound 0.005 µM); 0.187 in assay [1] (first compound 0.01581 µM); 0.145 in assay [1] (first compound 0.05 µM); 0.137 in assay [1] (first compound 0.1581 µM); 0.124 in assay [1] (first compound 0.5 µM); 0.305 in assay [2] (first compound 0.08 µM). Moreover, the relative viability was 0.343 in assay [2] (first compound 0.253 µM); 0.295 in assay [2] (first compound 0.8 µM); 0.316 in assay [2] (first compound 2.53 µM); 0.351 in assay [2] (first compound 8 µM); 1.13 in assay [3] (first compound 0.08 µM); 1.05 in assay [3] (first compound 0.253 µM). The relative viability in assay [3] (first compound 0.8 µM) came out at 0.821; in assay [3] (first compound 2.53 µM), 1.02; in assay [3] (first compound 8 µM), 1.02; in assay [4] (first compound 0.08 µM), 0.877; in assay [4] (first compound 0.253 µM) it was 0.901; in assay [4] (first compound 0.8 µM), 0.74. Moreover, the relative viability came to 0.722 in assay [4] (first compound 2.53 µM) and 0.874 in assay [4] (first compound 8 µM).

Regarding SK-MES-1, the relative viability in assay [1] (first compound 0.005 µM) was determined as 0.328; in assay [1] (first compound 0.01581 µM), 0.265; in assay [1] (first compound 0.05 µM), 0.173; in assay [1] (first compound 0.1581 µM), 0.182; in assay [1] (first compound 0.5 µM), 0.19; in assay [2] (first compound 0.08 µM), 0.781. For the same cell line, the relative viability in assay [2] (first compound 0.253 µM) came out at 0.823; in assay [2] (first compound 0.8 µM) it was 0.55; in assay [2] (first compound 2.53 µM), 0.609; in assay [2] (first compound 8 µM), 0.631; in assay [3] (first compound 0.08 µM) it was 1.12; in assay [3] (first compound 0.253 µM) it was 0.99. Also, the relative viability in assay [3] (first compound 0.8 µM) worked out at 1.03; in assay [3] (first compound 2.53 µM) it was 1.03; in assay [3] (first compound 8 µM) it was 1.06; in assay [4] (first compound 0.08 µM), 1.43; in assay [4] (first compound 0.253 µM) it was 1.25; in assay [4] (first compound 0.8 µM), 1.09. The relative viability worked out at 1.23 in assay [4] (first compound 2.53 µM) and 1.16 in assay [4] (first compound 8 µM).

Consider SW 1573, for which the relative viability in assay [1] (first compound 0.005 µM) turned out to be 0.275; in assay [1] (first compound 0.01581 µM) it was 0.18; in assay [1] (first compound 0.05 µM), 0.123; in assay [1] (first compound 0.1581 µM), 0.0832; in assay [1] (first compound 0.5 µM), 0.0842; in assay [2] (first compound 0.08 µM), 0.722. Also, the relative viability in assay [2] (first compound 0.253 µM) was determined as 0.676; in assay [2] (first compound 2.53 µM), 0.699; in assay [2] (first compound 8 µM), 0.578; in assay [3] (first compound 0.08 µM), 0.91; in assay [3] (first compound 0.253 µM) it was 0.887; in assay [3] (first compound 0.8 µM), 0.737. The relative viability in assay [3] (first compound 2.53 µM) came out at 0.754; in assay [3] (first compound 8 µM) it was 0.9; in assay [4] (first compound 0.08 µM), 0.777; in assay [4] (first compound 0.253 µM), 0.95; in assay [4] (first compound 0.8 µM) it was 0.585; in assay [4] (first compound 2.53 µM), 0.683. In addition, the relative viability in assay [4] (first compound 8 µM) came out at 1.11.
